Experimental data reported in patent publication US20250051321A1, “TRICYCLIC DERIVATIVE AND PREPARATION METHOD THEREFOR AND APPLICATION THEREOF” (SHANGHAI JEMINCARE PHARMACEUTICAL CO., LTD., priority 2021, published 2025).
Read-outs that look alike come from different tables or passages of the source.

What was measured:
[1] = target: ATX (Homo sapiens (Human), UniProt Q13822); test: ATX enzyme inhibition assay (Amplex UltraRed/choline oxidase/HRP, 16:0 Lyso PC substrate); type: biochemical
How it was run: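 ATX (2× stock […]) preincubated with compound for 10 min at room temperature in assay buffer at pH 8.5 or 7.5. Reaction started with 16:0 Lyso PC, choline oxidase, HRP and Amplex UltraRed (2.5× working stock); fluorescence read kinetically (ex 550/em 590 nm) for 60 min.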

[2] = test system: plasma LPA 18:1 and LPA 18:2; test: Human plasma ex vivo assay (LPA 18:1 / 18:2 by LC-MS/MS); type: biochemical; conditions: 37° C., 2 hours
How it was run: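 Human plasma incubated 2 h at 37° C with compound (8 points, 1:3 dilution, top 10 μM, 0.1% DMSO), then quenched with 0.1% FA containing LPA 17:0 internal standard.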

[3] = Pharmacokinetic test in mice; type: in vivo, ICR mice; conditions: for AUC / C0 / half-life / clearance / Cmax / Tmax / bioavailability: male, ICR, mouse, plasma; for clearance: read-out: CL (mL/min/kg, IV)
Description: Dosage preparation: The dosing solution was prepared on the day of dosing. 2 mg of compound was weighed and dissolved in 5% DMSO+10% solutol+85% saline to prepare a solution for intravenous administration at a concentration of 0.2 mg/mL. 2 mg of compound was weighed and dissolved in 25% PEG 200+75% (0.5% MC) to obtain a solution for oral administration at a concentration of 1 mg/mL.
Six healthy male naïve ICR mice, weighing 25 to 30 g, were divided into two groups (intravenous and oral groups) with three in each group, and administered in a single dose. After 3 days of acclimatization, the mice were fasted overnight (10 to 12 hours) the night before the experiment, but had free access to water during the experiment, and the diet was resumed 4 hours after administration. After intravenous and oral administration, the timer was started. Blood was collected via the orbital venous plexus at the scheduled time points (IV&PO: 0.083, 0.25, 0.5, 1, 2, 4, 6, 8, and 24 hours). 40 μL of whole blood was collected at each point and added to a 1.5 mL EP tube containing sodium heparin. The collected whole blood was vibrated twice on a vortex mixer, mixed well, placed on wet ice, and centrifuged at 8000 rpm for 5 minutes at 4° C. within 1 hour. The supernatant plasma was stored in a −80° C. freezer until processing for analysis.

[4] = assay buffer pH 8.5, read-out: IC50 (nM) pH 8.5
[5] = LPA 18:1, read-out: Human plasma ex vivo assay IC50 (18:1 LPA)
[6] = LPA 18:2, read-out: Human plasma ex vivo assay IC50 (18:2 LPA)
[7] = 5 mg/kg, PO - 5 mpk vs IV - 1 mpk
[8] = assay buffer pH 7.5, read-out: IC50 (nM) pH 7.5

SMILES | IC50 [1, 4] [nM] | IC50 [2, 5] [nM] | IC50 [2, 6] [nM] | AUC ([3]; 1 mg/kg, IV - 1 mpk) [ng·h/mL] | C0 ([3]; 1 mg/kg, IV - 1 mpk) [ng/mL] | half-life ([3]; 1 mg/kg, IV - 1 mpk) [h] | clearance ([3]; 1 mg/kg, IV - 1 mpk) [mL/min/kg] | AUC ([3]; 5 mg/kg, PO - 5 mpk) [ng·h/mL] | Cmax ([3]; 5 mg/kg, PO - 5 mpk) [ng/mL] | Tmax ([3]; 5 mg/kg, PO - 5 mpk) [h] | half-life ([3]; 5 mg/kg, PO - 5 mpk) [h] | bioavailability [3, 7] [%] | also measured
CN(c1nc(-c2ccc(F)cc2)c(C#N)s1)c1c2c(nc3c(F)cc(N4CC5(CN(C(=O)C(C)(C)O)C5)C4)cc13)[C@](C)(O)CC2 (single isomer, unassigned) [Example E35-b] |  | 457 | 407 | 6770 | 2920 | 2.51 | 2.51 | 14700 | 3140 | 1.58 | 2.05 | 43.5 | 
CN(c1nc(-c2ccc(F)cc2)c(C#N)s1)c1c2c(nc3c(F)cc(N4CC5(CN(C(=O)C(C)(C)O)C5)C4)cc13)CC2 [Example C28] |  | 545 | 574 | 14100 | 2110 | 3.63 | 1.21 | 125000 | 10200 | 3 | 2.82 | 176 | 
CN(c1nc(-c2ccc(F)cc2)c(C#N)s1)c1c2c(nc3c(F)cc(N4CC5(CN(C(=O)[C@H]6CCOC6)C5)C4)cc13)COC2 [Example C18] | 15.2 |  |  | 3700 | 1940 | 1.82 | 4.59 | 11000 | 3330 | 0.58 | 2.79 | 59.7 | 
Cc1cc(N2CC3(CN(C(=O)C(C)(C)O)C3)C2)cc2c(N(C)c3nc(-c4ccc(F)cc4)c(C#N)s3)c3c(nc12)C(O)CC3 (stereo not shown) [Example E26] |  | 516 | 592 |  |  |  |  | 31300 | 4430 | 1.75 | 2.16 |  | 
CN(c1nc(-c2ccc(F)cc2)c(C#N)s1)c1c2c(nc3c(F)cc(N4CC5(CN(C(=O)[C@H]6CCOC6)C5)C4)cc13)CCC2 [Example C1] | 36.3 | 521 | 438 |  |  |  |  |  |  |  |  |  | IC50 [1, 8]: 63.5 nM; AUCi ([3]; IV - 1 mpk): 5701 ng·h/mL; C0 (IV) ([3]; IV - 1 mpk): 3141 ng/mL; CL (mL/min/kg, IV) ([3]; IV - 1 mpk): 2.92 mL/min/kg; T1/2 ([3]; IV - 1 mpk): 2.15 h; AUCi ([3]; PO - 5 mpk): 7392 ng·h/mL; Cmax (PO) ([3]; PO - 5 mpk): 1903 ng/mL; T1/2 ([3]; PO - 5 mpk): 2.08 h; Tmax (hr, PO) ([3]; PO - 5 mpk): 1.0 h; Bioavailability (%) ([3]; PO - 5 mpk vs IV - 1 mpk): 26%
Cc1cc(N2CC3(CN(C(=O)C(C)(C)O)C3)C2)cc2c(N(C)c3nc(-c4ccc(F)cc4)c(C#N)s3)c3c(nc12)CC3 [Example C26] |  | 588 | 435 |  |  |  |  | 124000 | 8390 | 4.08 | 5.13 |  | 

Second part, led by results:

IC50 [1, 4] [nM] | IC50 [2, 5] [nM] | IC50 [2, 6] [nM] | AUC ([3]; 1 mg/kg, IV - 1 mpk) [ng·h/mL] | C0 ([3]; 1 mg/kg, IV - 1 mpk) [ng/mL] | half-life ([3]; 1 mg/kg, IV - 1 mpk) [h] | clearance ([3]; 1 mg/kg, IV - 1 mpk) [mL/min/kg] | AUC ([3]; 5 mg/kg, PO - 5 mpk) [ng·h/mL] | Cmax ([3]; 5 mg/kg, PO - 5 mpk) [ng/mL] | Tmax ([3]; 5 mg/kg, PO - 5 mpk) [h] | half-life ([3]; 5 mg/kg, PO - 5 mpk) [h] | bioavailability [3, 7] [%] | SMILES | also measured
20.1 | 381 | 383 | 5540 | 3550 | 1.87 | 3.07 | 17000 | 3010 | 0.33 | 2.22 | 61.3 | CN(c1nc(-c2ccc(F)cc2)c(C#N)s1)c1c2c(nc3c(F)cc(N4CC5(CN(C(=O)C(C)(C)O)C5)C4)cc13)[C@@H](O)CC2 (single isomer, unassigned) [Example E16-a] | 
 | 202 | 185 |  |  |  |  | 8890 | 2040 | 1.58 | 1.51 |  | Cc1cc(N2CC3(CN(C(=O)C(C)(C)O)C3)C2)nc2c(N(C)c3nc(-c4ccc(F)cc4)c(C#N)s3)c3c(nc12)C(O)CC3 (stereo not shown) [Example E32] | 
25.9 | 318 | 318 |  |  |  |  | 16900 | 4280 | 0.5 | 2.13 |  | CN(c1nc(-c2ccc(F)cc2)c(C#N)s1)c1c2c(nc3ncc(N4CC5(CN(C(=O)[C@@H]6CCOC6)C5)C4)cc13)CC2 [Example C17] | 
 | 251 | 220 | 12600 | 2600 | 2.73 | 1.39 | 36500 | 3640 | 0.67 | 1.89 | 57.7 | Cc1cc(N2CC3(CN(C(=O)C(C)(C)O)C3)C2)nc2c(N(C)c3nc(-c4ccc(F)cc4)c(C#N)s3)c3c(nc12)CC3 [Example C29] | 
22.7 | 294 | 306 |  |  |  |  |  |  |  |  |  | CN(c1nc(-c2ccc(F)cc2)c(C#N)s1)c1c2c(nc3c(F)cc(N4CC5(CN(C(=O)[C@H]6CCOC6)C5)C4)cc13)[C@H](O)CC2 (single isomer, unassigned) [Example E5-a] | AUCi ([3]; IV - 1 mpk): 1986 ng·h/mL; C0 (IV) ([3]; IV - 1 mpk): 1882 ng/mL; CL (mL/min/kg, IV) ([3]; IV - 1 mpk): 8.54 mL/min/kg; T1/2 ([3]; IV - 1 mpk): 0.95 h; AUCi ([3]; PO - 10 mpk): 44380 ng·h/mL; Cmax (PO) ([3]; PO - 10 mpk): 7763 ng/mL; T1/2 ([3]; PO - 10 mpk): 2.34 h; Tmax (hr, PO) ([3]; PO - 10 mpk): 0.5 h; Bioavailability (%) ([3]; PO - 10 mpk vs IV - 1 mpk): 223%
 | 379 | 457 |  |  |  |  | 23900 | 2830 | 0.58 | 2.66 |  | Cc1cc(N2CC3(CN(C(=O)C(C)(C)O)C3)C2)nc2c(N(C)c3nc(-c4ccc(F)cc4)c(C#N)s3)c3c(nc12)C(C)(O)CC3 (stereo not shown) [Example E25] | 
27.5 | 168 | 191 | 2080 | 1800 | 1.23 | 8 | 7940 | 2920 | 0.25 | 2.4 | 76.2 | CN(c1nc(-c2ccc(F)cc2)c(C#N)s1)c1c2c(nc3c(F)cc(N4CC5(CN(C(=O)[C@@H]6CCOC6)C5)C4)cc13)CC2 [Example C8] | IC50 [1, 8]: 67.3 nM
